Columns and labels:
Bach 1 = experiment: Western blot analysis; type: cell-based, human; conditions: two breast cancer cell lines (MCF7, MDA-MB-231); 250 ppm CO
Procedure: (§1) 1.5 × 10^6 cells were seeded in 6-cm cell culture plates with DMEM containing 10% FBS, 0.2 mM L-glutamine and 1% penicillin/streptomycin. Additionally, MCF7/TGL/pQ was cultured in media containing 0.5 µgml^-1 puromycin and 25 mM HEPES. After 16 hours of incubation, cells were lysed with RIPA buffer (0.1% SDS, 1% TritonX-100, 0.5% sodium deoxycholate, 25 mM Tris pH 8.0, 150 mM NaCl, and 1 mM EDTA) supplemented with a protease inhibitor mixture and PhosSTOP (Roche, Basel, Switzerland). Proteins were quantified with Bradford assay (Bio-Rad, Hercules CA). Equal amounts of proteins were separated with SDS-PAGE and transferred to nitrocellulose membranes. […] Protein bands were visualized by enhanced chemical luminescence (Pierce, Dallas, TX).
(§2) To investigate how CO reduces heme levels, whether CO decreased the transportation of heme into the cytosol was examined. […] Likewise, changes in protein levels of Bach 1 (a physiological repressor of HO-1 and a pro-metastatic transcription factor, whose degradation is reported to be mediated by heme in Nrf2-mutated lung cancer) was not detected (FIG. 4E). […]

HO-1 = experiment: Western blot analysis; type: cell-based, human; conditions: two breast cancer cell lines (MCF7, MDA-MB-231); 250 ppm CO
Procedure: as §1, §2

[1] = test system: non-malignant BJ fibroblasts; experiment: in vitro transwell migration assay; type: cell-based; conditions: 250 ppm CO
Procedure: Migration of different cancer cells under control air or 250 ppm CO treatment with or without supplement of 30 µM hemin was determined using in vitro transwell migration chamber with a serum gradient. Indicated cell lines were seeded into the transwell inserts. 16 hours later, cells on the top of the upper chambers were removed, and cells on the bottom surface of the transwell inserts were fixed, stained with crystal violet, and counted from eight randomly picked fields in three independent experiments. Error bars represent SEM. *: P < 0.05, two-sided t-test. Scale bar, 100 µm. […] Cells were seeded in the upper chamber of 8-µm porous polycarbonate membranes with DMEM containing 0% or 1% FBS, 0.2 mM L-glutamine, 1% penicillin/streptomycin. The lower chambers were filled with DMEM containing 10% or 20% FBS, 0.2 mM L-glutamine, and 1% penicillin/streptomycin (please see Table 1).
6.5 mm Transwell with 8.0 µm Pore Polycarbonate Membrane Insert (Corning, NY, Cat. No. 3422) was used for the cell migration assay (FIG. 1J). After 16 hours of incubation, cells migrated to the opposite side of the upper chambers were fixed with 4% paraformaldehyde, stained with 0.2% crystal violet for 30 min and counted in five fields under × 20 magnification. In parallel, cells were seeded on 24-well plates for proliferation assay. […] The optical density was measured at 595 nm (OD595). […]

8988T cells = experiment: proliferation assay (crystal violet, OD595); type: cell-based, human; conditions: 16 hours
Procedure: (§3) Proliferation of different cancer cells under control air or 250 ppm CO treatment with or without supplement of 30 µM hemin was determined. Indicated cell lines cell lines were seeded in the 24-well plate in normal growth media. 16 hours later, cells were fixed, stained with crystal violet, and lysed by methanol. OD595 were measured from triplicates of each cell type. Error bars represent SEM. *: P < 0.05, two-sided t-test. Scale bar, 100 µm.
(§4) 6.5 mm Transwell with 8.0 µm Pore Polycarbonate Membrane Insert (Corning, NY, Cat. No. 3422) was used for the cell migration assay (FIG. 1J). After 16 hours of incubation, cells migrated to the opposite side of the upper chambers were fixed with 4% paraformaldehyde, stained with 0.2% crystal violet for 30 min and counted in five fields under × 20 magnification. In parallel, cells were seeded on 24-well plates for proliferation assay. Cells for proliferation control were fixed with 4% paraformaldehyde, stained with 0.2% crystal violet for 30 min and lysed with methanol to release the crystal violet as described by M. Feoktistova, P. Geserick, & M. Leverkus, Cold Spring Harb Protoc 2016, pdb prot087379 (2016). The optical density was measured at 595 nm (OD595). To supplement heme/hemin in the transwell migration assay, 30 µM hemin (MedChemExpress, Monmouth Junction, NJ, Cat. No. HY-19424) was added to both the cell suspension in the upper chambers and the bottom wells.
(§5) To examine whether CO has an effect on tumor cell migration, in vitro transwell migration assays were performed. Various human cancer cell lines, including 3 types of breast cancer (ER^+: MCF7 cells, HER2^+: HCC1954 cells, triple-negative breast cancer (TNBC): MDA-MB-231 cells), pancreatic ductal adenocarcinoma (PDAC) (8988T cells), pancreatic neuroendocrine tumor (PNET) (CM cells), colon cancer (SW480 cells), prostate cancer (22Rv1 cells), liver cancer (HepG2 cells), and lung cancer (H1975 cells) were seeded in the upper chamber of 8-µm porous polycarbonate membranes. Cell migration through the transwell membrane along a serum gradient (Table 1) after 16 hours in the presence or absence of 250 ppm CO were measured.

HCC1954 cells = experiment: proliferation assay (crystal violet, OD595); type: cell-based, human; conditions: 16 hours
Procedure: as §3, §4, §5

CM cells = experiment: proliferation assay (crystal violet, OD595); type: cell-based, human; conditions: 16 hours
Procedure: as §3, §4, §5

HepG2 cells = experiment: proliferation assay (crystal violet, OD595); type: cell-based, human; conditions: 16 hours
Procedure: as §3, §4, §5

22Rv1 cells = experiment: proliferation assay (crystal violet, OD595); type: cell-based, human; conditions: 16 hours
Procedure: as §3, §4, §5

MCF7 cells = experiment: proliferation assay (crystal violet, OD595); type: cell-based, human; conditions: 16 hours
Procedure: as §3, §4, §5

[2] = 30 µM hemin, with or without 250 ppm CO

Row | Compound | changes in protein levels of Bach 1 (Bach 1) | increase of HO-1 expression (HO-1) | migration [1] | cell proliferation (8988T cells; 250 ppm CO, vs control air) | cell proliferation (HCC1954 cells; 250 ppm CO, vs control air) | cell proliferation (CM cells; 250 ppm CO, vs control air) | cell proliferation (HepG2 cells; 250 ppm CO, vs control air) | cell proliferation (22Rv1 cells; 250 ppm CO, vs control air) | cell proliferation (MCF7 cells; MCF7 cells, 250 ppm CO, vs control air) | cancer cell proliferation with hemin supplement (8988T cells; [2]) | cancer cell proliferation with hemin supplement (HCC1954 cells; [2]) | cancer cell proliferation with hemin supplement (CM cells; [2]) | cancer cell proliferation with hemin supplement (HepG2 cells; [2]) | cancer cell proliferation with hemin supplement (22Rv1 cells; [2]) | cancer cell proliferation with hemin supplement (MCF7 cells; MCF7/TGL cells, 30 µM hemin, with or without 250 ppm CO)
1 | [C-]#[O+] [CO, Carbon monoxide] | not detected | not detected | only slightly reduced | did not affect | did not affect | did not affect | did not affect | did not affect | did not affect |  |  |  |  |  | 
2 | Hemin [reference compound] |  |  |  |  |  |  |  |  |  | did not alter | did not alter | did not alter | did not alter | did not alter | did not alter

— patent US20230346831A1, “METHODS FOR TREATING […] USING LOW DOSE CARBON MONOXIDE” (priority 2020, published 2023)
